# In the supplement of paper PMC11451515:
# Tested on: P12-Ichikawa
# Assay: cell viability relative to DMSO control; higher = less cytotoxic
# Conditions: 48 h
# How it was run: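 Viability is a per-plate percentage relative to DMSO wells, with cell-free wells as background. CellTiter-Glo One luminescence was read after 48 h at 37°C on 1536-well plates (5 μl) of NOMO1 or SEM (500 cells/well) or P12-Ichikawa (1000 cells/well) leukemia cells. The cells had been adapted for at least four passages in each medium and pin-dosed with library compounds in DMSO from 47 μM to 0.79 nM in 11 threefold steps.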
# [1] = HPLM + 10% dialyzed FBS, 0.000781 µM
# [2] = HPLM + 10% dialyzed FBS, 0.00234 µM
# [3] = HPLM + 10% dialyzed FBS, 0.00702 µM
# [4] = HPLM + 10% dialyzed FBS, 0.0211 µM
# [5] = HPLM + 10% dialyzed FBS, 0.0632 µM
# [6] = HPLM + 10% dialyzed FBS, 0.19 µM
# [7] = HPLM + 10% dialyzed FBS, 0.569 µM
# [8] = HPLM + 10% dialyzed FBS, 1.71 µM
# [9] = HPLM + 10% dialyzed FBS, 5.12 µM
# [10] = HPLM + 10% dialyzed FBS, 15.4 µM
# [11] = HPLM + 10% dialyzed FBS, 46.1 µM
# [12] = RPMI 5 mM glucose + 10% FBS, 0.000781 µM
# [13] = RPMI 5 mM glucose + 10% FBS, 0.00234 µM
# [14] = RPMI 5 mM glucose + 10% FBS, 0.00702 µM
# [15] = RPMI 5 mM glucose + 10% FBS, 0.0211 µM
# [16] = RPMI 5 mM glucose + 10% FBS, 0.0632 µM
# [17] = RPMI 5 mM glucose + 10% FBS, 0.19 µM
# [18] = RPMI 5 mM glucose + 10% FBS, 0.569 µM
# [19] = RPMI 5 mM glucose + 10% FBS, 1.71 µM
# [20] = RPMI 5 mM glucose + 10% FBS, 5.12 µM
# [21] = RPMI 5 mM glucose + 10% FBS, 15.4 µM
# [22] = RPMI 5 mM glucose + 10% FBS, 46.1 µM
# [23] = RPMI 5 mM glucose + 10% dialyzed FBS, 0.000781 µM
# [24] = RPMI 5 mM glucose + 10% dialyzed FBS, 0.00234 µM
# [25] = RPMI 5 mM glucose + 10% dialyzed FBS, 0.00702 µM
# [26] = RPMI 5 mM glucose + 10% dialyzed FBS, 0.0211 µM
# [27] = RPMI 5 mM glucose + 10% dialyzed FBS, 0.0632 µM
# [28] = RPMI 5 mM glucose + 10% dialyzed FBS, 0.19 µM
# [29] = RPMI 5 mM glucose + 10% dialyzed FBS, 0.569 µM
# [30] = RPMI 5 mM glucose + 10% dialyzed FBS, 1.71 µM
# [31] = RPMI 5 mM glucose + 10% dialyzed FBS, 5.12 µM
# [32] = RPMI 5 mM glucose + 10% dialyzed FBS, 15.4 µM
# [33] = RPMI 5 mM glucose + 10% dialyzed FBS, 46.1 µM
SMILES,cell viability [1] [%],cell viability [2] [%],cell viability [3] [%],cell viability [4] [%],cell viability [5] [%],cell viability [6] [%],cell viability [7] [%],cell viability [8] [%],cell viability [9] [%],cell viability [10] [%],cell viability [11] [%],cell viability [12] [%],cell viability [13] [%],cell viability [14] [%],cell viability [15] [%],cell viability [16] [%],cell viability [17] [%],cell viability [18] [%],cell viability [19] [%],cell viability [20] [%],cell viability [21] [%],cell viability [22] [%],cell viability [23] [%],cell viability [24] [%],cell viability [25] [%],cell viability [26] [%],cell viability [27] [%],cell viability [28] [%],cell viability [29] [%],cell viability [30] [%],cell viability [31] [%],cell viability [32] [%],cell viability [33] [%]
CCOC(=O)\C1=C\[C@@H](OC(CC)CC)[C@H](NC(C)=O)[C@@H](N)C1,98.9,95,92.3,97.3,92.3,103,96.9,96,99.6,100,94.9,86,95.3,97.4,95.8,94.3,102,95.7,88.5,102,100,99.9,87.7,79.3,86.5,94.8,90.7,81.4,88.8,86.2,87.4,84.8,99.3
CN(C)C1=C(Br)C=C(C=C1)C\2NC3=C(\C4=C2C(=O)CC(C)(C)C4)C5=CC=CC=C5C=C3 (configuration not stated),116,96.7,118,116,116,113,106,108,107,103,108,112,115,116,104,111,100,109,101,105,102,107,112,111,110,113,117,109,102,111,101,97,104
CC(C)(C)[C@H](NC(=O)c1ccc(N)c(Cl)c1)C(=O)N1CCC[C@H]1C(=O)N[C@H](C#N)CC(=O)O,121,126,123,127,131,127,130,126,32.8,14.4,10.8,116,124,130,133,126,139,133,133,49.9,22.6,15.5,108,123,121,133,131,130,133,127,102,52.1,16.7
CO/N=C(\C(=O)N[C@@H]1C(=O)N2C(C(=O)OCOC(=O)C(C)(C)C)=C(/C=C\c3scnc3C)CS[C@H]12)c1csc(N)n1,91.7,102,105,104,108,110,106,106,110,89.8,72.4,85.6,91.6,101,99.6,101,103,96.4,103,103,75.8,60.1,92,89.6,102,91.8,104,106,99.2,98.7,102,80.9,57.2
COC1=CC=C2/C3=N/CCN3\C(=N/C2=C1OC)NC(=O)C4=CC=CN=C4,113,124,110,117,129,118,113,123,108,92.6,89.7,108,110,115,108,114,115,104,102,78.8,73.4,58,111,120,115,119,115,117,111,105,97.3,86.1,65.9
Cc1c(C)c2c(c(C)c1O)CCC(C)(COc1ccc(CC3SC(=O)NC3=O)cc1)O2 (configuration not stated),112,127,121,126,126,127,131,136,129,118,109,,,,,,,,,,,,,,,,,,,,,,
c1ccc(-c2oc3ncnc(NC[C@@H]4CCCO4)c3c2-c2ccccc2)cc1,,,,,,,,,,,,,,,,,,,,,,,109,118,120,113,127,124,128,115,112,103,49.8
CCOc1cc(CC(=O)N[C@@H](CC(C)C)c2ccccc2N2CCCCC2)ccc1C(=O)O,113,124,116,129,130,125,129,111,12.2,13.3,13.4,110,130,119,137,124,127,135,120,16.4,17.6,19.6,,,,,,,,,,,
Cc1ncc([N+](=O)[O-])n1CC(C)O (configuration not stated),105,116,111,110,105,117,114,111,116,125,103,94.3,109,101,104,90.4,113,105,115,104,106,102,102,112,106,104,95.2,112,117,113,111,106,106
